Test [1] relates to HTT. The test is described as follows: RT-qPCR splicing assay, HTT AJ/CJ mRNA. Format: cell-based, human. To be noted: A673 or K562 cells; for IC50: decrease in canonical junction mRNA; for AC50: increase in alternative junction mRNA. On the procedure: (§1) Compounds described herein were used to modulate RNA transcript abundance in cells. The expression of a target mRNA was measured by detecting the formation of an exon-exon junction in the canonical transcript (CJ). A compound mediated exon-inclusion event was detected by observing an increase in formation OF A new junction with an alternative exon (AJ). Real-time qPCR assays were used to detect these splicing switches and interrogate the potency of various compounds towards different target Genes. A high-throughput real time quantitative PCR (RT-qPCR) assay was developed to measure these two isoforms of the mRNA (CJ and AJ) for exemplary genes, such as HTT, SMN2, and MYB, together with a control housekeeping gene, GAPDH or GUSB or PPIA, used for normalization. Briefly, the A673 or K562 cell line was treated with various compounds described herein (e.g., compounds of Formula (i)). After treatment, the levels of the HTT, MYB, or SMN2 mRNA targets were determined from each sample of cell lysate by cDNA synthesis followed by qPCR.
(§2) The A673 cell line was cultured in DMEM with 10% FBS. Cells were diluted with full growth media and plated in a 96-well plate (15,000 cells in 100 ul media per well). The plate was incubated at 37° C. with 5% CO2 for 24 hours to allow cells to adhere. An 11-point 3-fold serial dilution of the compounds was made in DMSO then diluted in media in an intermediate plate. Compounds were transferred from the intermediate plate to the cell plate with the top dose at a final concentration of 10 uM in the well. Final DMSO concentration was kept at or below 0.25%. The cell plate was returned to the incubator at 37° C. with 5% CO2 for an additional 24 hours.
(§3) The K562 cell line was cultured in IMDM with 10% FBS. For K562, cells were diluted with full growth media and plated in either a 96-well plate (50,000 cells in 50 uL media per well) or a 384-well plate (8,000-40,000 cells in 45 uL media per well). An 11-point 3-fold serial dilution of the compounds were made in DMSO then diluted in media in an intermediate plate. Compound was transferred from the intermediate plate to the cell plate with the top dose at a final concentration of 10 uM in the well. Final DMSO concentration was kept at or below 0.25%. Final volume was 100 uL for 96-well plate and 50 uL for 384-well plate. The cell plate was then placed in an incubator at 37° C. with 5% CO2 for 24 hours.
(§4) The cells were then gently washed with 50 uL-100 uL Cold Pbs before proceeding to addition of lysis buffer. 30 uL-50 μL of room temperature lysis buffer with DNAse I (and optionally RNAsin) was added to each well. Cells were shaken/mixed thoroughly at room temperature for 5-10 minutes for lysis to take place and then 3 uL-5 μL of room temperature stop solution was added and wells were shaken/mixed again. After 2-5 minutes, the cell lysate plate was transferred to ice for RT-qPCR reaction setup. The lysates could also be frozen at −80° C. for later use.
(§5) In some cases, a direct lysis buffer was used. an appropriate volume of 3× lysis buffer (10 mM tRis, 150 mM NaCl, 1.5%-2.5% Igepal and 0.1-1 U/uL RNAsin, pH 7.4) was directly added to either K562 or A673 cells in media and mixed by pipetting 3 times. The plates were then incubated at room temperature with shaking/rocking for 20-50 minutes to allow for lysis to take place. After this time, the cell lysate plate was transferred to ice to set up for the RT-qPCR reactions. The lysates could also be frozen at −80° C. for later use.
(§6) To set up 10 uL RT-QpcR reactions, cell lysates were transferred to 384-well qPCR plates containing the master mix according to the table below. The plates were sealed, gently vortexed, and spun down before the run. The volumes were adjusted accordingly in some instances where the reaction was carried in 20 µL. The table below summarizes the components of the RT-qPCR reactions:
(§7) The RT-qPCR reaction was performed using a QuantStudio (ThermoFisher) under the following fast cycling conditions. […]
(In general: Quantitative PCR measures a nucleic acid by following its amplification.)

Test [2] deals with MYB. Description: Gene panel canonical junction qPCR assay, MYB CJ mRNA (Table 7). To be noted: Homo sapiens, read-out: MYB CJ mRNA decrease IC50. The format is cell-based. On the procedure:
as §1
(§8) The data analysis was performed by first determining the ΔCt vs the housekeeper gene. This ΔCt was then normalized against the DMSO control (ΔΔCt) and converted to RQ (relative quantification) using the 2^(−ΔΔCt) equation. The RQ were then converted to a percentage response by arbitrarily setting an assay window of 3.5 and 4.0 ΔCt for HTT-CJ and MYB-CJ respectively and an assay window of 9 and 3 ΔCt for HTT-AJ and MYB-AJ in 96 well format (50,000 K562 cells/well and 15,000 A673 cells per well) and an assay window of 3 and 4 ΔCt for HTT-CJ and MYB-CJ respectively and an assay window of 5 and 3 ΔCt for HTT-AJ and MYB-AJ respectively in 384 well format (8,000 K562 cells/well example). […] The percentage response was then fitted to the 4 parametric logistic equation to evaluate the concentration dependence of compound treatment. The increase in AJ mRNA is reported as AC50 (compound concentration having 50% response in AJ increase) while the decrease in CJ mRNA levels is reported as IC50 (compound concentration having 50% response in CJ decrease).
(§9) Additional studies were carried out for a larger panel of genes using the protocol provided above. The junction between flanking upstream and downstream exons was used to design canonical junction qPCR assays. At least one of the forward primer, reverse primer or the CY5-labeled 5′ nuclease probe (with 3′ quencher such as ZEN/Iowa Black FQ) was designed to overlap with the exon junction to capture the CJ mRNA transcript. BLAST was used to confirm the specificity of the probeset and parameters such as melting temperature, GC content, amplicon size, and primer dimer formation are considered during their design. Data for the decrease in CJ mRNA levels for four exemplary genes (HTT, SMN2, MYB, and Target C) analyzed in this panel are reported as IC50 (compound concentration having 50% response in CJ decrease).

Test [3] has as its system HTT. The test is described as follows: Gene panel canonical junction qPCR assay, HTT CJ mRNA (Table 7). Format: cell-based, human. The note with it: read-out: HTT CJ mRNA decrease IC50. The procedure:
as §1, §8, §9

The test system of test [4] is MYB. The test is described as follows: RT-qPCR splicing assay, MYB AJ/CJ mRNA. The format is cell-based. To be noted: Homo sapiens, A673 or K562 cells, 24 hours; for IC50: decrease in canonical junction mRNA; for AC50: increase in alternative junction mRNA. The procedure: as §1, §2, §3, §4, §5, §6, §7
For test [5], the system named is SMN2. Description: Gene panel canonical junction qPCR assay, SMN2 CJ mRNA (Table 7). Format: cell-based. To be noted: Homo sapiens, read-out: SMN2 CJ mRNA decrease IC50. On the procedure: as §1, §8, §9
Test [6] relates to Target C. Description: Gene panel canonical junction qPCR assay, Target C CJ mRNA (Table 7). The format is cell-based, human. The note with it: read-out: Target C CJ mRNA decrease IC50. On the procedure:
as §1, §8, §9

Where two headings read alike, the source gives them in different places.

The text below walks through data of patent US20240400584A1, “COMPOUNDS AND METHODS FOR MODULATING SPLICING” (REMIX THERAPEUTICS INC., priority 2021, published 2024).

Consider `Cc1cc(-c2ccc3c(c2)COc2nc(N4CC[C@@H](NC(C)(C)C)C4)ccc2-3)cnn1` (single isomer, unassigned) [Compound 274, N-tert-butyl-1-[8-(6-methylpyridazin-4-yl)-6H-isochromeno[3,4-b]379yrrolid-3-yl]379yrrolidine-3-amine], for which the half-maximal inhibitory concentration (IC50) (in general, the concentration at which inhibition is half-maximal) was 1 to 10 µM in test [1] (Homo sapiens, 24 h); over 10 µM in test [2]; 1 to 10 µM in test [3] (Homo sapiens); over 10 µM in test [4]; 0.1 to 1 µM in test [5]; over 10 µM in test [6] (Homo sapiens). For the same compound, the AC50 (in general, the concentration at which the activity in the assay is half-maximal) in test [1] (Homo sapiens, 24 h) is over 10 µM; in test [4] it was over 10 µM.

`c1cnn(-c2ccc3c(c2)OCc2nc(N[C@@H]4C[C@H]5CC[C@@H](C4)N5)ccc2-3)c1` [Compound 135]: the IC50 in test [1] (24 hours), in test [2], in test [3], in test [4], in test [5] and in test [6] was 1 to 10 µM in each case. The AC50 in test [1] (24 hours) was 1 to 10 µM; in test [4] it was over 10 µM.

With `c1cnn(-c2ccc3c(c2)OCCc2nc(N[C@@H]4C[C@H]5CC[C@@H](C4)N5)ccc2-3)c1` [Compound 136], the IC50 is over 10 µM in test [1] (Homo sapiens, 24 h); over 10 µM in test [2]; over 10 µM in test [3] (Homo sapiens); over 10 µM in test [4]; over 10 µM in test [5]; over 10 µM in test [6] (Homo sapiens). The AC50 was over 10 µM in test [1] (Homo sapiens, 24 h) and over 10 µM in test [4].

`CC1(C)CC(Nc2ccc3c(n2)CCOc2cc(-n4cccn4)ccc2-3)CC(C)(C)N1` [Compound 137]: the 50% inhibitory concentration (IC50) is 1 to 10 µM in test [1] (Homo sapiens, 24 h); over 10 µM in test [2]; over 10 µM in test [3] (Homo sapiens); over 10 µM in test [4]; over 10 µM in test [5]; 1 to 10 µM in test [6] (Homo sapiens). Also, the concentration at half-maximal activity (AC50) in test [1] (Homo sapiens, 24 h) is 1 to 10 µM; in test [4], over 10 µM.

`c1cnn(-c2ccc3c(c2)OCCc2cc(N[C@@H]4C[C@H]5CC[C@@H](C4)N5)ccc2-3)c1` [Compound 139]: the IC50 in test [1] (Homo sapiens, 24 h) is over 10 µM; in test [2], over 10 µM; in test [3] (Homo sapiens) it was over 10 µM; in test [4], over 10 µM; in test [5] it was over 10 µM; in test [6] (Homo sapiens) it was over 10 µM. In addition, the AC50 in test [1] (Homo sapiens, 24 h) is over 10 µM; in test [4], over 10 µM.

Consider `CN(c1ccc2c(n1)OCc1cc(-c3cnn(C)c3)ccc1-2)[C@@H]1C[C@H]2CC[C@@H](C1)N2` [Compound 150], for which the IC50 in test [1] (Homo sapiens, 24 h) was under 0.1 µM; in test [2], 0.1 to 1 µM; in test [3] (Homo sapiens), under 0.1 µM; in test [4], 0.1 to 1 µM; in test [5], over 10 µM; in test [6] (Homo sapiens) it was 0.1 to 1 µM. Also, the AC50 is under 0.1 µM in test [1] (Homo sapiens, 24 h) and 0.1 to 1 µM in test [4].

As for `c1cnn(-c2ccc3c(c2)COc2nc(N4CC5(CCNCC5)C4)ccc2-3)c1` [Compound 167], the concentration for half-maximal inhibition (IC50) in test [1] (Homo sapiens, 24 h) is over 10 µM; in test [2], over 10 µM; in test [3] (Homo sapiens), over 10 µM; in test [4], over 10 µM; in test [5] it was over 10 µM; in test [6] (Homo sapiens), over 10 µM. Moreover, the concentration at half-maximal activity (AC50) in test [1] (Homo sapiens, 24 h) is over 10 µM; in test [4], over 10 µM.

In the case of `c1cnn(-c2ccc3c(c2)COc2nc(N4CC5(CCCNC5)C4)ccc2-3)c1` [Compound 168], the IC50 in test [1] (Homo sapiens, 24 h) is over 10 µM; in test [2], over 10 µM; in test [3] (Homo sapiens), over 10 µM; in test [4], over 10 µM; in test [5], over 10 µM; in test [6] (Homo sapiens) it was over 10 µM. Further, the AC50 is over 10 µM in test [1] (Homo sapiens, 24 h) and over 10 µM in test [4].

Consider `c1cnn(-c2ccc3c(c2)COc2nc(N4CCC5(CC4)CNC5)ccc2-3)c1` [Compound 169], for which the IC50 in test [1] (Homo sapiens, 24 h) was 0.1 to 1 µM; in test [2], 0.1 to 1 µM; in test [3] (Homo sapiens), 0.1 to 1 µM; in test [4] it was 0.1 to 1 µM; in test [5], 0.1 to 1 µM; in test [6] (Homo sapiens), 0.1 to 1 µM. The AC50 was in the range of 0.1 to 1 µM in test [1] (Homo sapiens, 24 h) and 0.1 to 1 µM in test [4].

Regarding `CN1C[C@@H]2CN(c3ccc4c(n3)OCc3cc(-n5cccn5)ccc3-4)C[C@@H]2C1` [Compound 170], the concentration for half-maximal inhibition (IC50) in test [1] (Homo sapiens, 24 h) is 1 to 10 µM; in test [2], over 10 µM; in test [3] (Homo sapiens), 1 to 10 µM; in test [4] it was over 10 µM; in test [5] it was 1 to 10 µM; in test [6] (Homo sapiens), over 10 µM. Moreover, the AC50 in test [1] (Homo sapiens, 24 h) is 1 to 10 µM; in test [4], 1 to 10 µM.

Take `CC1(C)CC(Oc2ccc3c(n2)OCc2cc(-n4cccn4)ccc2-3)CC(C)(C)N1` [Compound 171]: the 50% inhibitory concentration (IC50) lay within 1 to 10 µM in test [1] (Homo sapiens, 24 h); 1 to 10 µM in test [2]; 1 to 10 µM in test [3] (Homo sapiens); 1 to 10 µM in test [4]; 0.1 to 1 µM in test [5]; 1 to 10 µM in test [6] (Homo sapiens). The half-maximal activity concentration (AC50) was 1 to 10 µM in test [1] (Homo sapiens, 24 h) and 1 to 10 µM in test [4].

In the case of `CN(c1ccc2c(n1)OCc1cc(-n3cc(N)cn3)ccc1-2)[C@@H]1C[C@H]2CC[C@@H](C1)N2` [Compound 172], the IC50 is 0.1 to 1 µM in test [1] (Homo sapiens, 24 h); 0.1 to 1 µM in test [2]; 0.1 to 1 µM in test [3] (Homo sapiens); 0.1 to 1 µM in test [4]; under 0.1 µM in test [5]; 0.1 to 1 µM in test [6] (Homo sapiens). For the same compound, the AC50 in test [1] (Homo sapiens, 24 h) was in the range of 0.1 to 1 µM; in test [4], 0.1 to 1 µM.
